Each compound was assayed against T1, TRPM8 (Rattus norvegicus, UniProt Q8R455) (assay: Confirmation test of inhibitory effects on icilin-induced wet-dog shakes). Details: female SD rats, oral dose 1 mg/kg, icilin 1 mg/kg i.p. 1 hour after dosing, shakes counted for 5 minutes.
T1 construct: from tissue; host or cells: whole animal, female SD rats (in vivo)
Type: in vivo
Text: Further, TRPM8 inhibitory activity can be evaluated by the efficacy inhibiting the wet-dog shake action which is induced by the administration of Icilin, TRPM8 agonist. Furthermore, an effect on overactive bladder (OAB) can be evaluated by an elongation of micturition interval against overactive bladder induced by acetic acid in accordance with a similar method described in J. Urol., 2001, 166, 1142.
Confirmation Test of Inhibitory Effects on Icilin-induced Wet-dog Shakes
Test compounds were dissolved in dimethylacetamide (wako), and 0.5% methylcellulose solution (wako) was added to make the solution or suspension containing 5% of dimethylacetatnide. At a dose of 0.3 to 10 mg/kg/5mL of test compounds were orally administered to female SD rats. After 1 hour, wet-dog shakes were induced by the intraperitoneal injection of icilin (1 mg/kg) which was dissolved in polyethylene glycol 400 (wako). From 5 minutes after the administration of icilin, wet-dog shakes were counted for 5 minutes. For control example, vehicle (a mixture of dimethylacetamide (wako): 0.5% methylcellulose (wako)=5:95) was administrated similarly, and the number of wet-dog shakes was counted in the same manner. A percent inhibition of wet-dog shakes by test compound was calculated from the following formula: [1-(test compound wet-dog shake count/vehicle wet-dog shake count)]×100.

T1 sequence (Q8R455 whole entry): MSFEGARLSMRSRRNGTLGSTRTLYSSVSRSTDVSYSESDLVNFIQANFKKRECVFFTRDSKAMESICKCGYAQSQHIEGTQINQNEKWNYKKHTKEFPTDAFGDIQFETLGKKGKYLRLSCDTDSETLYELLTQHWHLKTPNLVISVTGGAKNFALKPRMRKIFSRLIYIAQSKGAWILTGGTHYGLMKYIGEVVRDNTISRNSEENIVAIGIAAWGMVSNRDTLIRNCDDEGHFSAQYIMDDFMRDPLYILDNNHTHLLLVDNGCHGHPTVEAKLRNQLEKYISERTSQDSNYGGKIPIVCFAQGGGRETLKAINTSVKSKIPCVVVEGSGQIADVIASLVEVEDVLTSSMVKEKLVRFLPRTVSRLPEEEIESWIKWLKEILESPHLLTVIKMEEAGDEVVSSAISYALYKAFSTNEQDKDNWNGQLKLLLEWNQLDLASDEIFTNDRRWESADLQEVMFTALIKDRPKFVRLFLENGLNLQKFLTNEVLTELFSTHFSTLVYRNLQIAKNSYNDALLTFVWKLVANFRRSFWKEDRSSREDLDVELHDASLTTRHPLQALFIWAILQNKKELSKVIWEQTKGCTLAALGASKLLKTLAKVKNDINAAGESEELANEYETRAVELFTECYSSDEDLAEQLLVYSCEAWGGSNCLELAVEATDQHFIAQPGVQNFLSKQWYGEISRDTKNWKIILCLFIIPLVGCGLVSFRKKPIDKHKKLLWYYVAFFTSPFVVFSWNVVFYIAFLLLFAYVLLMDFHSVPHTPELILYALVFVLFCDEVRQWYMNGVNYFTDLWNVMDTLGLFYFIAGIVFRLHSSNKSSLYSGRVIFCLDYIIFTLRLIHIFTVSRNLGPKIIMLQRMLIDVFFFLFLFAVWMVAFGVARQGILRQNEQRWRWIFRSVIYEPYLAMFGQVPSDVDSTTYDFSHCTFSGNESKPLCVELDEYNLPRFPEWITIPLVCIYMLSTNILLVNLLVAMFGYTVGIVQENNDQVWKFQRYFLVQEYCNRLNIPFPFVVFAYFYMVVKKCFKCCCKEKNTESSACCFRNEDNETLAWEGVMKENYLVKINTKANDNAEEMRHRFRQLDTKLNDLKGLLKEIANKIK

| Compound | % inhibition of Wet-Dog Shake [%] |
| --- | --- |
| O=C(N[C@@H](CO)Cc1ncccc1F)c1cccc(F)c1-c1cc(-c2ccc(F)cc2)[nH]n1 [Example 1-167] | 65 |
| O=C(N[C@@H](CCO)Cc1ccccn1)c1ccccc1-c1n[nH]c(-c2ccc(F)cc2)c1F [Example 1-173] | 85 |
| COC[C@@H](O)[C@@H](Cc1ccccn1)NC(=O)c1cccc(F)c1-c1n[nH]c(-c2ccc(F)cc2)c1F [Example 1-213] | 68 |
| O=C(N[C@@H]([C@H](O)CO)C(F)(F)c1ccccn1)c1cccc(F)c1-c1cc(-c2ccc(F)cc2)[nH]n1 [Example 1-229] | 56 |
| O=C(N[C@@H](CO)C(F)(F)c1ccccn1)c1cccc(F)c1-c1cc(-c2ccc(F)cc2)[nH]n1 [Example 1-230] | 59 |
| CO[C@H](CO)[C@@H](Cc1ncccn1)NC(=O)c1cccc(F)c1-c1cc(-c2ccc(Cl)cc2)[nH]n1 [Example 1-242] | 73 |
| O=C(N[C@H](Cn1cccn1)[C@H](O)CF)c1cccc(F)c1-c1cc(-c2ccc(F)cc2)[nH]n1 [Example 1-245] | 55 |
| CO[C@H](CO)[C@@H](Cc1ncccn1)NC(=O)c1cccc(F)c1-c1n[nH]c(-c2ccc(F)cc2)c1F [Example 27-18] | 86 |
| CO[C@H](CO)[C@@H](Cc1nccs1)NC(=O)c1cccc(F)c1-c1cc(-c2ccc(F)cc2)[nH]n1 [Example 27-19] | 80 |

The next lines start with the values.

| % inhibition of Wet-Dog Shake [%] | Compound |
| --- | --- |
| 38 | CC(CO)[C@@H](Cc1ccccn1)NC(=O)c1cccc(F)c1-c1cc(-c2ccc(F)cc2)[nH]n1 (stereo partly drawn) [Example 1-164] |
| 72 | COC[C@@H](O)[C@@H](Cc1ccccn1)NC(=O)c1cccc(F)c1-c1cc(-c2ccc(F)cc2)[nH]n1 [Example 27-4] |

Same assay, conditions: female SD rats, oral dose 3 mg/kg, icilin 1 mg/kg i.p. 1 hour after dosing, shakes counted for 5 minutes

| Compound | % inhibition of Wet-Dog Shake [%] |
| --- | --- |
| O=C(N[C@@H](CCO)Cc1ccccn1)c1cccc(OC(F)(F)F)c1-c1cc(-c2ccc(F)cc2)[nH]n1 [Example 1-134] | 49 |
| O=C(N[C@@H](CCO)Cc1ccccn1)c1cccc(F)c1-c1n[nH]c(-c2ccc(Cl)cc2)c1F [Example 1-154] | 75 |
| O=C(N[C@H](Cc1ccccn1)[C@H](O)CO)c1cccc(F)c1-c1n[nH]c(-c2ccc(F)cc2)c1F [Example 1-156] | 99 |
| O=C(N[C@@H](CO)Cc1ncccn1)c1cccc(F)c1-c1cc(-c2ccc(F)cc2)[nH]n1 [Example 1-174] | 60 |
| O=C(N[C@@H](CO)Cc1nccs1)c1cccc(F)c1-c1cc(-c2ccc(F)cc2)[nH]n1 [Example 1-177] | 59 |
| O=C(N[C@@H](CO)Cc1cscn1)c1cccc(F)c1-c1cc(-c2ccc(F)cc2)[nH]n1 [Example 1-182] | 37 |
| Cn1ccnc1C[C@H](CO)NC(=O)c1cccc(F)c1-c1cc(-c2ccc(F)cc2)[nH]n1 [Example 1-183] | 36 |
| O=C(N[C@H](Cc1ccccn1)[C@H](O)CO)c1ccccc1-c1cc(-c2ccc(F)cc2)[nH]n1 [Example 1-185] | 56 |
| O=C(N[C@@H](CCO)Cc1ncccn1)c1cccc(F)c1-c1cc(-c2ccc(F)cc2)[nH]n1 [Example 1-191] | 31 |
| O=C(NCC(O)c1ccccn1)c1cccc(F)c1-c1cc(-c2ccc(F)cc2)[nH]n1 (stereo not drawn) [Example 1-194] | 60 |
| COc1cccnc1C[C@H](CO)NC(=O)c1cccc(F)c1-c1cc(-c2ccc(F)cc2)[nH]n1 [Example 1-196] | 63 |
| O=C(N[C@@H](CO)Cc1ncccc1C(F)(F)F)c1cccc(F)c1-c1cc(-c2ccc(F)cc2)[nH]n1 [Example 1-197] | 44 |
| O=C(N[C@@H](CO)C(O)c1ccccn1)c1ccccc1-c1n[nH]c(-c2ccc(F)cc2)c1F (stereo partly drawn) [Example 1-205] | 70 |
| O=C(N[C@@H](CCO)C(O)c1ccccn1)c1ccccc1-c1n[nH]c(-c2ccc(F)cc2)c1F (stereo partly drawn) [Example 1-206] | 55 |
| O=C(N[C@@H](CCO)Cc1ccccn1)c1ccccc1-c1cc(-c2ccc(F)cc2)[nH]n1 [Example 1-208] | 100 |
| O=C(N[C@@H](CCO)Cc1ccccn1)c1ccccc1-c1n[nH]c(-c2ccc(Cl)cc2)c1F [Example 1-223] | 100 |
| O=C(N[C@H](Cn1cccn1)[C@H](O)CO)c1cccc(F)c1-c1cc(-c2ccc(F)cc2)[nH]n1 [Example 1-226] | 53 |
| O=C(N[C@@H](CO)C(F)c1ccccn1)c1cccc(F)c1-c1cc(-c2ccc(F)cc2)[nH]n1 (stereo partly drawn) [Example 1-231] | 88 |
| C[C@@](Cc1ccccc1)(NC(=O)c1cccc(F)c1-c1cc(-c2ccc(F)cc2)[nH]n1)C(N)=O [Example 24-1, (2S)-2-{3-Fluoro-2-[5-(4-fluorophenyl)-1H-pyrazol-3-yl]benzoylamino}-2-methyl-3-phenylpropanamide] | 71 |
| C[C@@](Cc1ccccc1)(NC(=O)c1ccccc1-c1cc(-c2ccc(F)cc2)[nH]n1)C(N)=O [Example 24-3] | 46 |
| C[C@@](Cc1ccccn1)(NC(=O)c1cccc(F)c1-c1cc(-c2ccc(F)cc2)[nH]n1)C(N)=O [Example 24-7] | 56 |
| O=C(NC(CCO)Cc1ccccn1)c1ccccc1-c1cc(-c2ccc(F)cc2)[nH]n1 (stereo not drawn) [Example 26-2] | 69 |
| CO[C@H](CO)[C@@H](Cc1ncccc1C#N)NC(=O)c1cccc(F)c1-c1cc(-c2ccc(F)cc2)[nH]n1 [Example 27-16] | 56 |
| CO[C@@H](CO)[C@@H](Cn1cccn1)NC(=O)c1cccc(F)c1-c1cc(-c2ccc(F)cc2)[nH]n1 [Example 27-17] | 86 |

More lines, now with the values ahead:

| % inhibition of Wet-Dog Shake [%] | Compound |
| --- | --- |
| 94 | O=C(N[C@@H](CCO)Cc1ccccn1)c1cccc(F)c1-c1cc(-c2ccc(Cl)cc2)[nH]n1 [Example 1-131] |
| 84 | O=C(N[C@@H](CO)Cc1ccccn1)c1cccc(F)c1-c1cc(-c2ccc(Cl)cc2)[nH]n1 [Example 1-137] |
| 100 | CC(c1ccccn1)[C@H](CCO)NC(=O)c1cccc(F)c1-c1cc(-c2ccc(F)cc2)[nH]n1 (stereo partly drawn) [Example 1-138] |
| 48 | CC(CO)[C@@H](Cc1ccccn1)NC(=O)c1cccc(F)c1-c1cc(-c2ccc(Cl)cc2)[nH]n1 (stereo partly drawn) [Example 1-162] |
| 34 | O=C(N[C@H](Cc1ccccn1)[C@H](O)CO)c1cccc(Cl)c1-c1cc(-c2ccc(F)cc2)[nH]n1 [Example 1-169] |
| 91 | CC(c1ccccn1)[C@H](CO)NC(=O)c1cccc(F)c1-c1cc(-c2ccc(F)cc2)[nH]n1 (stereo partly drawn) [Example 1-200] |
| 47 | O=C(N[C@@H](CO)C(O)c1ccccn1)c1cccc(Cl)c1-c1cc(-c2ccc(F)cc2)[nH]n1 (stereo partly drawn) [Example 1-210] |
| 75 | C[C@](O)(CO)[C@@H](Cc1ccccn1)NC(=O)c1cccc(F)c1-c1cc(-c2ccc(F)cc2)[nH]n1 [Example 1-217] |
| 40 | C[C@](O)(CO)[C@@H](Cc1ccccn1)NC(=O)c1cccc(Cl)c1-c1cc(-c2ccc(F)cc2)[nH]n1 [Example 1-218] |
| 45 | C[C@](O)(CO)[C@@H](Cc1ccccn1)NC(=O)c1cccc(F)c1-c1cc(-c2ccc(Cl)cc2)[nH]n1 [Example 1-219] |
| 82 | C[C@@](O)(CO)[C@@H](Cc1ccccn1)NC(=O)c1cccc(F)c1-c1cc(-c2ccc(F)cc2)[nH]n1 [Example 1-224] |
| 37 | C[C@@](O)(CO)[C@@H](Cc1ccccn1)NC(=O)c1cccc(Cl)c1-c1cc(-c2ccc(F)cc2)[nH]n1 [Example 1-225] |
| 97 | C[C@@](O)(CO)[C@@H](Cc1ccccn1)NC(=O)c1ccccc1-c1cc(-c2ccc(F)cc2)[nH]n1 [Example 1-228] |
| 100 | CC(O)(c1ccccn1)[C@H](CO)NC(=O)c1cccc(F)c1-c1cc(-c2ccc(F)cc2)[nH]n1 (stereo partly drawn) [Example 1-241] |
| 31 | C[C@](CCO)(Cc1ccccn1)NC(=O)c1cccc(F)c1-c1cc(-c2ccc(F)cc2)[nH]n1 [Example 24-4] |
| 89 | O=C(NC(CCO)Cc1ccccn1)c1cccc(F)c1-c1cc(-c2ccc(F)cc2)[nH]n1 (stereo not drawn) [Example 26-1, 3-Fluoro-2-[5-(4-fluorophenyl)-1H-pyrazol-3-yl]-N-[4-hydroxy-1-(pyridin-2-yl)butan-2-yl]benzamide] |
| 52 | COC[C@@H](O)[C@@H](Cc1ccccn1)NC(=O)c1cccc(Cl)c1-c1cc(-c2ccc(F)cc2)[nH]n1 [Example 27-5] |

Same assay, conditions: female SD rats, oral dose 10 mg/kg, icilin 1 mg/kg i.p. 1 hour after dosing, shakes counted for 5 minutes

| Compound | % inhibition of Wet-Dog Shake [%] |
| --- | --- |
| O=C(NCCc1ccccn1)c1cccc(OC(F)(F)F)c1-c1cc(-c2ccccc2)[nH]n1 [Example 4-1, 2-(5-Phenyl-1H-pyrazol-3-yl)-N-[2-(pyridin-2-yl)ethyl]-3-trifluoromethoxybenzamide] | 70 |
| NC[C@@H](Cc1ccccn1)NC(=O)c1ccccc1-c1cc(-c2ccc(F)c(F)c2)[nH]n1 [Example 16-11] | 51 |

— US10287251B2, “Pyrazole derivative or pharmaceutically acceptable salt thereof” (KISSEI PHARMACEUTICAL CO., LTD., priority 2015, dated 2019)
